From US7019123B2, “Human bikunin” (Bayer Corporation, priority 1996, dated 2006)

Tests used:
[1] = biological target: Bovine chymotrypsin (Bos taurus, UniProt P00766); assay: Inhibition of chymotrypsin, AAPF-pNA substrate; type: biochemical; details: Chymotrypsin (5 nM), AAPF-pNA 0.08 mM
[2] = biological target: T1, Factor XIIa (Homo sapiens, UniProt P00748); assay: Inhibition of Factor XIIa, PFR-AMC substrate; type: biochemical
T1 sequence (P00748 373-615 limits assumed): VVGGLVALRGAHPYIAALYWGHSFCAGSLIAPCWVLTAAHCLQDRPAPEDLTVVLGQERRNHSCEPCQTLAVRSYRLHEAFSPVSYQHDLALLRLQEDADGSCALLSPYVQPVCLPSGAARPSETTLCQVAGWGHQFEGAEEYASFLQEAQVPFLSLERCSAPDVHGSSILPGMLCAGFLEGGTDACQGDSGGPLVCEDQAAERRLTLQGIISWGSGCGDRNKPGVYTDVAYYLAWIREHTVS

Structure (SMILES): CC[C@H](C)[C@H](N)C(=O)N[C@@H](Cc1c[nH]cn1)C(=O)N[C@@H](CC(=O)O)C(=O)N[C@@H](Cc1ccccc1)C(=O)N[C@H]1CSSC[C@@H](C(=O)N[C@@H](C)C(=O)N[C@H](C(=O)N[C@H](C(=O)O)C(C)C)[C@@H](C)O)NC(=O)[C@H](CCCCN)NC(=O)[C@H](CCCCN)NC(=O)[C@H](CC(C)C)NC(=O)[C@@H]2CSSC[C@@H]3NC(=O)[C@H](CO)NC(=O)CNC(=O)[C@H](CC(=O)O)NC(=O)[C@H]([C@@H](C)O)NC(=O)[C@H](C(C)C)NC(=O)[C@H](CC(N)=O)NC(=O)[C@H](Cc4ccc(O)cc4)NC(=O)[C@H](Cc4c[nH]c5ccccc45)NC(=O)[C@H](Cc4c[nH]c5ccccc45)NC(=O)[C@H](CCCNC(=N)N)NC(=O)[C@@H]4CCCN4C(=O)[C@H](CCSC)NC(=O)[C@H](CO)NC(=O)[C@H](C)NC(=O)[C@H](CCCNC(=N)N)NC(=O)[C@H](CSSC[C@H](NC(=O)CNC(=O)CNC(=O)[C@H](Cc4ccc(O)cc4)NC(=O)[C@H](C(C)C)NC(=O)[C@H](Cc4ccccc4)NC(=O)[C@H](CC(C)C)NC(=O)[C@H](CCC(N)=O)NC3=O)C(=O)N[C@@H](CC(=O)O)C(=O)NCC(=O)N[C@@H](CC(N)=O)C(=O)N[C@@H](CO)C(=O)N[C@@H](CC(N)=O)C(=O)N[C@@H](CC(N)=O)C(=O)N[C@@H](Cc3ccc(O)cc3)C(=O)N[C@@H](CC(C)C)C(=O)N[C@@H]([C@@H](C)O)C(=O)N[C@@H](CCCCN)C(=O)N[C@@H](CCC(=O)O)C(=O)N[C@@H](CCC(=O)O)C(=O)N2)NC(=O)[C@H](CCCNC(=N)N)NC(=O)CNC(=O)[C@H](C(C)C)NC(=O)[C@H](C(C)C)NC(=O)[C@H](CCCCN)NC(=O)[C@H](CO)NC(=O)[C@H](C(C)C)NC(=O)[C@H](CC(C)C)NC1=O [bikunin (7–64)]
- Ki [1]: 0.6 nM
- Ki [2]: > 300 nM
